In this assay the target is Maltase-glucoamylase (Homo sapiens, UniProt O43451). Kind of assay: Inhibition of alpha-glucosidase (unknown origin) using p-nitrophenyl-alpha-D-glucopyranoside as substrate incubated for 10 mins followed by substrate addition and measured after 15 mins by microplate reader analysis.

Structures are written as SMILES.

The record followed here is BindingDB's records for PubMed 35766919 (Zhejiang University, 2022).

Maltase-glucoamylase, sequence (O43451 whole entry): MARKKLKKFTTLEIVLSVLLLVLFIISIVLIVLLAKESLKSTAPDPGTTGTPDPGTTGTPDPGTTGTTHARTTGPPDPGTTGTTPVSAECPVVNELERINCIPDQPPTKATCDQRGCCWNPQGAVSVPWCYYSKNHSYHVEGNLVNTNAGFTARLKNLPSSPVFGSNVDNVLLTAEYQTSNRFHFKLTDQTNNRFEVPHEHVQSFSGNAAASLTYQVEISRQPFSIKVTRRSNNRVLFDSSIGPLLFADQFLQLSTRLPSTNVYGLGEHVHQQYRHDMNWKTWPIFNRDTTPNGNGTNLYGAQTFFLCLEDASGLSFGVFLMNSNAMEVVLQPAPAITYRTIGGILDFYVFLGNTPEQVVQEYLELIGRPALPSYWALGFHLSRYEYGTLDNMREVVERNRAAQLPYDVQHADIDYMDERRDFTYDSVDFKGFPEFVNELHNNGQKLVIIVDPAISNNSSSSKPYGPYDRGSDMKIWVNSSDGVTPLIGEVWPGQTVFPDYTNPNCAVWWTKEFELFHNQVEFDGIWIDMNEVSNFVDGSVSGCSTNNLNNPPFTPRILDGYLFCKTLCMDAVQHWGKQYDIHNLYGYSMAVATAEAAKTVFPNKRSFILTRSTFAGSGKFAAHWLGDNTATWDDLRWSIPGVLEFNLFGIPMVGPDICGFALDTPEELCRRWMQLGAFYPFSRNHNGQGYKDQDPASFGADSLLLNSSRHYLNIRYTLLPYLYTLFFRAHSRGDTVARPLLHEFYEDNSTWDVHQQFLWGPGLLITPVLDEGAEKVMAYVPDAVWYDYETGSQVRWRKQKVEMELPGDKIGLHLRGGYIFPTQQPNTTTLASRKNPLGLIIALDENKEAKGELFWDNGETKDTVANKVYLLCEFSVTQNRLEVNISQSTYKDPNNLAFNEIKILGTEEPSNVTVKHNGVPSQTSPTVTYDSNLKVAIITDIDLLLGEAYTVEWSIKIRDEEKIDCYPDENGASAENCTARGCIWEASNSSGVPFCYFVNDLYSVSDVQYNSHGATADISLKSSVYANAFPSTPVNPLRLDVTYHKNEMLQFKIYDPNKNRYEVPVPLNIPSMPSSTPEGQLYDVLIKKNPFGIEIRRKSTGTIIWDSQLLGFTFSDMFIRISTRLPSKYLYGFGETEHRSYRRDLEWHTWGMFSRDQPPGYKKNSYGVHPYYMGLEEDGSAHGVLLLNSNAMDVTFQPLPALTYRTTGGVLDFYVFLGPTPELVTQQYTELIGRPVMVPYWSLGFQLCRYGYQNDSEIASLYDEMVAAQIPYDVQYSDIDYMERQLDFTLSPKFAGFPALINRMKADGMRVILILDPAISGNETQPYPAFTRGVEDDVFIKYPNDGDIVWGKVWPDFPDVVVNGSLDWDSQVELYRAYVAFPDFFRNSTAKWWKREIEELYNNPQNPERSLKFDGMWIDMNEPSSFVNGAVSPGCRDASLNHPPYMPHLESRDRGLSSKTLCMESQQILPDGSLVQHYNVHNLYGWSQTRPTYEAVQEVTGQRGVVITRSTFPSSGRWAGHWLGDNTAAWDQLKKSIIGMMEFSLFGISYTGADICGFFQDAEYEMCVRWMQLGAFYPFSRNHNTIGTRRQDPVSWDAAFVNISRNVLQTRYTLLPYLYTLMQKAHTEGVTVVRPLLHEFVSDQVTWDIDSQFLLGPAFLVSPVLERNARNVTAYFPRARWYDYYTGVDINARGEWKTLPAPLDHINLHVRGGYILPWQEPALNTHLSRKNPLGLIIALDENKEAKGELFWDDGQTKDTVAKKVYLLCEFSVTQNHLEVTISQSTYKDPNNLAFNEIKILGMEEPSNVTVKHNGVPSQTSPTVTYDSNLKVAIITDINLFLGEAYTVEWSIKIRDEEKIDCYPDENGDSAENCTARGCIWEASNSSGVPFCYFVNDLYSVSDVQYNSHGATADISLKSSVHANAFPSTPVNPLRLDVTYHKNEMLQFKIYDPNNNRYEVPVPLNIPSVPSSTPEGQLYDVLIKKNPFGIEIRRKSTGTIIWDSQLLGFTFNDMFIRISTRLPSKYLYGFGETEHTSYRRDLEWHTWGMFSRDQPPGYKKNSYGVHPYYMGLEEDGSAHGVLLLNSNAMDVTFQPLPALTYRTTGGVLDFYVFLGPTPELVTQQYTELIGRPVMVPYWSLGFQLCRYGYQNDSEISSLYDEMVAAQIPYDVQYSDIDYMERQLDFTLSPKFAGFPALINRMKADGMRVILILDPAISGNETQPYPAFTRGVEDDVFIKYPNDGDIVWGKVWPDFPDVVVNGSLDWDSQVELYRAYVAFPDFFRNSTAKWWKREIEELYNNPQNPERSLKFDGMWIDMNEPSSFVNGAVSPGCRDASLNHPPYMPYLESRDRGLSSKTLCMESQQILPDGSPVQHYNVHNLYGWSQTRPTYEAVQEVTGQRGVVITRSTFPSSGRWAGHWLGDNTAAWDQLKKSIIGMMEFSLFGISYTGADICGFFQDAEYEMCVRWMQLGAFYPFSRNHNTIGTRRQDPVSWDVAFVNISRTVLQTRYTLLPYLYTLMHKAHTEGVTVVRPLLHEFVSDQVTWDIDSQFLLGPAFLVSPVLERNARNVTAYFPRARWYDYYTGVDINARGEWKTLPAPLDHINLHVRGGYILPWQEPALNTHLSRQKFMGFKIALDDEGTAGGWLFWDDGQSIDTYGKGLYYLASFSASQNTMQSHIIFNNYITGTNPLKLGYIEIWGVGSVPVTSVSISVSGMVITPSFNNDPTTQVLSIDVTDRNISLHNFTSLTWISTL

In turn, `Cc1cc(O)c2c(c1)-c1c(-c3ccc(O)cc3)c(=O)oc3c1c-2c(O)c1cccc(O)c13` came in with an IC50 of 890 nM. `Cc1cc(O)c2c(c1)-c1c(-c3c[nH]c4ccccc34)c(=O)oc3c1c-2c(O)c1cccc(O)c13` returned a 50% inhibitory concentration (IC50) of 1580 nM.

As a reminder, the IC50 is the concentration needed to halve the response being measured.
